Earlier results, collected in patent US5614503A, “Amphipathic nucleic acid transporter” (Aronex Pharmaceuticals, Inc., priority 1995, dated 1997).

Key:
[1] = Moore et al., 1993
animal cells = conditions: some types of animal cells; Felgner, 1990

| Structure (SMILES) | antibiotic activity [1] | effect on uptake kinetics of nucleic acids (animal cells) |
| --- | --- | --- |
| CC(C)[C@@H](CC[C@@H](C)[C@H]1CC[C@H]2[C@@H]3[C@H](O)C[C@H]4C[C@@H](NCCCNCCCCN)CC[C@]4(C)[C@H]3CC[C@]12C)OS(=O)(=O)O [squalamine] | broad-spectrum antibiotic | – |
| CCCCCCCC/C=C\CCCCCCCCOCC(C[N+](C)(C)C)OCCCCCCCC/C=C\CCCCCCCC (centres unmarked) [DOTMA] | – | can improve the uptake kinetics of nucleic acids |
